Reference: the METLIN SMRT retention time set (Domingo-Almenara et al. 2019)

Experiment: gradient 5% acetonitrile 3 min, to 50% in 2 min, to 85% in 15 min, held 3 min, 100 µL/min
Settings: column: Zorbax Extend-C18 2.1 x 50 mm; eluents: water / acetonitrile, 0.1% formic acid
How it was run: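 Each retention time is based on an adduct peak selected computationally and verified by manual inspection. Measurements used HPLC–quadrupole time-of-flight mass spectrometry in positive and negative ionization mode on mixtures of ~100 pure standards. Chromatography ran on a Zorbax Extend-C18 column (2.1 × 50 mm, 1.8 μm) at 100 μL/min with water and acetonitrile, each containing 0.1% formic acid, and dead and dwell volumes of 40 μL and 900 μL.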

SMILES	RP-LC retention time [s]
CCOC(=O)C1CCN(C(=O)c2cc(CC)n3nc(-c4ccco4)cc3n2)CC1	886
CCOC(=O)c1ccc(NS(=O)(=O)c2cc3n(c2)CCCN(C)C3=O)cc1	711
O=C(NCc1ccccc1Cl)C(=O)NCC1CCN(C(=O)COc2ccccc2)CC1	566
O=C(Cn1nc2n(c1=O)CCCCC2)Nc1ccc(C(F)(F)F)cc1	764
O=C(OCC(O)COC(=O)c1cccnc1)c1cccnc1	624
COc1ccc(NS(=O)(=O)c2cc(-c3[nH]ncc3C(=O)N(C)C)oc2C)cc1Cl	699
COc1ccccc1C1=NS(=O)(=O)c2cc(S(=O)(=O)N3CCOCC3)ccc2N1	718
CCn1nc(C)c(CCN(C)C(=O)Nc2ccccc2Br)c1C	705
CCCN(CCC)C(=O)C1CCCN(c2ncnc3c2nc2n3CCCCC2)C1 (stereo unspecified)	836
COc1ccc(Br)cc1Cn1nnc(C(=O)NCc2ccco2)c1N	791
O=S(=O)(c1cccn2c(SCc3cccc(F)c3)nnc12)N1CCCC1	831
CCCc1nc2cccnc2n1C1CCN(C(=O)Cc2cccs2)C1 (stereo unspecified)	612
O=C(O)C1CCN(c2nc3ccc(-c4ccccc4)nc3s2)CC1	868
CCOC(=O)C1=C(C)NC2=C(C(=O)c3ccccc32)C1c1ccc(OC)c(OC)c1 (stereo unspecified)	902
COCCCNC(=O)C1CCN(C(=O)c2ccc(-n3c(C)cc4ccccc43)s2)CC1	854
COC[C@@H]1CN(S(=O)(=O)Cc2ccccc2)C[C@H]1c1ccccn1	693
COc1cccc(CNC(=O)C2(C)CCCN(S(=O)(=O)c3ccc(F)cc3F)C2)c1 (stereo unspecified)	922

SMILES	RP-LC retention time [s]
COCCOCc1nc(C2CCCN2S(=O)(=O)c2cccc3nsnc23)no1 (stereo unspecified)	759
CC1(C(=O)NC2CCCCCCC2)CN(S(C)(=O)=O)CC(=O)N1c1ccc(F)cc1 (stereo unspecified)	884
COC(=O)c1ccccc1NC(=O)Cn1nc2nc(N3CCCC(C)C3)ccn2c1=O (stereo unspecified)	863
Cc1noc(C)c1S(=O)(=O)N1CC(N(Cc2cccnc2)CC(C)C)C1	706
O=C(Cc1ccsc1)Nc1cnc(N2CCOCC2)nc1	686
Cn1nc(C(=O)N2CCCC(C(=O)Nc3ccccc3)C2)c2c1CCN(C(=O)Cc1cccs1)C2 (stereo unspecified)	748
CCC(CC)C(=O)N1CCc2c(c(C(=O)N3CCCC(C(=O)Nc4ccccc4)C3)nn2C)C1 (stereo unspecified)	761
CCn1c(=O)c(N2CCC(NC(=O)Nc3cc(C)cc(C)c3)CC2)nc2cccnc21	1010
CCC(=O)N1CCCc2ccc(NC(=O)c3ccco3)cc21	729
CCn1cc(C)c(C(=O)O)c1CC(=O)NCc1cccnc1	584
CCOC(=O)c1c(C)[nH]c(C(=O)N2CCC(CC(=O)N3CCCCC3)CC2)c1C	741
Cc1cccc(NC(=O)N2CCCC2c2c(C)noc2C)c1 (stereo unspecified)	771
COC(=O)c1ccc(NC(=O)C2CCN(S(=O)(=O)c3ccc4c(c3)sc(=O)n4C)CC2)cc1	854
CCc1ccc(NC(=O)C2CCN(S(=O)(=O)c3cn(C)cn3)CC2)cc1	734
Cc1cc(F)ccc1NC(=O)C1CCCN1S(=O)(=O)c1cc2c(cc1C)NC(=O)C(C)O2 (stereo unspecified)	812
COC(=O)c1sccc1NC(=O)Nc1cccn2c(C3CCC3)nnc12	884

Continued, values first:

RP-LC retention time [s]	SMILES
882	Cn1cc(-c2cc3n(n2)CCC(=O)N3CC(=O)NC2CCCc3ccccc32)c2ccccc21 (stereo unspecified)
897	Cc1ccc(CNC(=O)C2(C)CCCN(C(=O)Nc3ccc(C)c(C)c3)C2)cc1 (stereo unspecified)
887	COc1cccc(-c2ccc(=O)n(Cc3nc(-c4ccc(OC)c(OC)c4)no3)n2)c1
820	COc1ccc(-c2c(C)noc2NC(C)=O)cc1S(=O)(=O)Nc1ccc(Cl)cc1C
1250	Cc1ccc(Cn2cc(-c3nc(-c4ccc(Cl)cc4)no3)ccc2=O)cc1
1040	CCc1ccc(NC(=O)N2CCc3nc(-c4ccc(F)cc4)ncc3C2)cc1
850	Cn1c(=O)c2cc(C(=O)Nc3ccc4c(c3)OCO4)cnc2n(-c2ccc(F)cc2)c1=O
676	CCOC(=O)C1CCN(S(=O)(=O)c2cccc(-c3cn4ccccc4n3)c2)CC1
797	Clc1ccc(-c2nc(-c3ccc(-n4ccnc4)nc3)no2)cc1
797	Cc1ccc(CN2C(=O)C3CCCN3C(=O)c3ccccc32)cc1 (stereo unspecified)
730	Cc1ccc(-c2c(C(=O)NCC3CCCO3)nc3ccccn23)cc1 (stereo unspecified)
730	COc1cc(-c2nc3ccc(Cl)cn3c2Nc2ccc(C)cc2)ccc1O
594	CCCn1cc(-c2ccncc2)cc1C(=O)Nc1ccc(NC(C)=O)cc1
836	CCc1nnc(-c2ccc3ccn(CC(=O)NCCc4ccccc4)c3c2)o1
754	CCn1ccc2c(cc(C(=O)Nc3cc(F)ccc3F)n2C)c1=O
898	CSc1ccc(-c2nc3ncccn3c2Nc2ccc(C)cc2C)cc1
875	O=C(Cn1cccc(-c2nc(-c3ccc(F)cc3)no2)c1=O)Nc1ccc(F)cc1F

RP-LC retention time [s]	SMILES
797	Cc1ccc(CC(=O)NC2CCN(c3ccccc3)C2=O)cc1 (stereo unspecified)
581	Cc1ccnc(Nc2nc(CC(=O)NCCc3cccs3)cs2)c1
726	COC(=O)c1ccc2c(=O)n(-c3cccc(C)c3)c(N3CCN(c4ccccn4)CC3)nc2c1
807	COc1ccc(NC(=O)Cn2c(=O)c3cc(C4CC4)nn3c3ncccc32)cc1Cl
860	CCN1C(=O)c2cc(C(=O)Nc3ccc(Cl)cc3)nn2CC1(C)C(=O)NC1CCCC1 (stereo unspecified)
716	O=C(Nc1ccccc1)N1CCC(n2c(-c3ccco3)nc3cccnc32)C1 (stereo unspecified)
1040	CCOc1ccc(N2C=C(C#N)S(=O)(=O)c3ccc(Cl)cc32)cc1
823	Cc1cc(C(=O)Nc2ccc(-c3nc(Cn4cccn4)c(C)o3)cc2)no1
999	Cc1ccc(-c2noc(Cn3cnc4c(oc5ccccc54)c3=O)n2)cc1
722	CCOc1ccccc1NC(=O)N1CC(n2cnnc2-c2ccccc2)C1
564	Cc1nc(-c2cccs2)sc1C(=O)NCCn1nc(-n2ccnc2C)ccc1=O
688	O=S(=O)(c1ccccc1)N1CC(c2nc(-c3ccncc3)no2)C1
1070	CCCn1cc(C(=O)Nc2ccc3c(c2)OCCO3)c(=O)c2ccc(C)nc21
660	Cn1cc(CCNC(=O)c2ccccc2Br)c2cccnc21
997	Cc1csc(-n2nc(C)c(CC(=O)Nc3ccc(Cl)cc3)c2C)n1
890	O=S(=O)(c1ccc2nc(N3CCN(c4ccc(F)cc4)CC3)ccc2c1)N1CCOCC1
